{"source": "ChEMBL document CHEMBL3885861", "about": "“Open TG-GATES”", "organism": "Rattus norvegicus", "assay": "Open TG-GATES - Regimen: Single", "format": "toxicity, organism-based, Sprague-Dawley", "design": "regimen Single, gender Male, age 6 weeks", "conditions": "in vivo, po, 10 mg/kg, route gavage, dose level Low; for APTT / Bas / Eos / Fbg / Hb / Ht / Lym / MCH / MCHC / MCV / Mono / Neu / PT / Plat / RBC / Ret / WBC: tissue Blood; for KIDNEY_L / KIDNEY_R / KIDNEY_TOTAL: tissue Kidney; for LIVER: tissue Liver; for A/G / ALP / ALT / AST / BUN / CRE / Ca / Cl / DBIL / GLC / IP / K / LDH / Na / PL / RALB / TBIL / TC / TG / TP / gamma-GTP: tissue Plasma"}
{"smiles": "OCCOCCN1CCN(C(c2ccccc2)c2ccc(Cl)cc2)CC1", "note": "(stereo unspecified) [HYDROXYZINE]", "values": [{"measurement": "TERMINAL_BW", "setting": "3 h", "value": 192.7, "unit": "g"}, {"measurement": "APTT", "setting": "3 h", "value": 15.4, "unit": "s"}, {"measurement": "Bas", "setting": "3 h", "value": 0.4, "unit": "%"}, {"measurement": "Eos", "setting": "3 h", "value": 0.6, "unit": "%"}, {"measurement": "Fbg", "setting": "3 h", "value": 276.8, "unit": "mg/dL"}, {"measurement": "Hb", "setting": "3 h", "value": 12.7, "unit": "g/dL"}, {"measurement": "Ht", "setting": "3 h", "value": 39.3, "unit": "%"}, {"measurement": "Lym", "setting": "3 h", "value": 80.6, "unit": "%"}, {"measurement": "MCH", "setting": "3 h", "value": 21.7, "unit": "pg"}, {"measurement": "MCHC", "setting": "3 h", "value": 32.3, "unit": "%"}, {"measurement": "MCV", "setting": "3 h", "value": 67, "unit": "fL"}, {"measurement": "Mono", "setting": "3 h", "value": 2.6, "unit": "%"}, {"measurement": "Neu", "setting": "3 h", "value": 15.2, "unit": "%"}, {"measurement": "PT", "setting": "3 h", "value": 15.1, "unit": "s"}, {"measurement": "Plat", "setting": "3 h", "value": 113, "unit": "x10_4/uL"}, {"measurement": "RBC", "setting": "3 h", "value": 587.8, "unit": "x10_4/ul"}, {"measurement": "Ret", "setting": "3 h", "value": 9.1, "unit": "%"}, {"measurement": "WBC", "setting": "3 h", "value": 89.2, "unit": "x10_2/uL"}, {"measurement": "KIDNEY_L", "setting": "3 h", "value": 0.8, "unit": "g"}, {"measurement": "KIDNEY_R", "setting": "3 h", "value": 0.9, "unit": "g"}, {"measurement": "KIDNEY_TOTAL", "setting": "3 h", "value": 1.7, "unit": "g"}, {"measurement": "LIVER", "setting": "3 h", "value": 9, "unit": "g"}, {"measurement": "A/G", "setting": "3 h", "value": 0.8}, {"measurement": "ALP", "setting": "3 h", "value": 1362.6, "unit": "IU/L"}, {"measurement": "ALT", "setting": "3 h", "value": 43.4, "unit": "IU/L"}, {"measurement": "AST", "setting": "3 h", "value": 75.6, "unit": "IU/L"}, {"measurement": "BUN", "setting": "3 h", "value": 11.2, "unit": "mg/dL"}, {"measurement": "CRE", "setting": "3 h", "value": 0.2, "unit": "mg/dL"}, {"measurement": "Ca", "setting": "3 h", "value": 11.1, "unit": "mg/dL"}, {"measurement": "Cl", "setting": "3 h", "value": 105.2, "unit": "meq/L"}, {"measurement": "DBIL", "setting": "3 h", "value": 0.016, "unit": "mg/dL"}, {"measurement": "GLC", "setting": "3 h", "value": 176.6, "unit": "mg/dL"}, {"measurement": "IP", "setting": "3 h", "value": 9.4, "unit": "mg/dL"}, {"measurement": "K", "setting": "3 h", "value": 4.4, "unit": "meq/L"}, {"measurement": "LDH", "setting": "3 h", "value": 80.4, "unit": "IU/L"}, {"measurement": "Na", "setting": "3 h", "value": 141.6, "unit": "meq/L"}, {"measurement": "PL", "setting": "3 h", "value": 137.2, "unit": "mg/dL"}, {"measurement": "RALB", "setting": "3 h", "value": 2.4, "unit": "g/dL"}, {"measurement": "TBIL", "setting": "3 h", "value": 0.064, "unit": "mg/dL"}, {"measurement": "TC", "setting": "3 h", "value": 74.6, "unit": "mg/dL"}, {"measurement": "TG", "setting": "3 h", "value": 46.2, "unit": "mg/dL"}, {"measurement": "TP", "setting": "3 h", "value": 5.3, "unit": "g/dL"}, {"measurement": "gamma-GTP", "setting": "3 h", "value": 1, "unit": "IU/L"}, {"measurement": "TERMINAL_BW", "setting": "6 h", "value": 193.5, "unit": "g"}, {"measurement": "APTT", "setting": "6 h", "value": 15.7, "unit": "s"}, {"measurement": "Bas", "setting": "6 h", "value": 0, "unit": "%"}, {"measurement": "Eos", "setting": "6 h", "value": 0.8, "unit": "%"}, {"measurement": "Fbg", "setting": "6 h", "value": 285.2, "unit": "mg/dL"}, {"measurement": "Hb", "setting": "6 h", "value": 12.8, "unit": "g/dL"}, {"measurement": "Ht", "setting": "6 h", "value": 40.3, "unit": "%"}, {"measurement": "Lym", "setting": "6 h", "value": 75.8, "unit": "%"}, {"measurement": "MCH", "setting": "6 h", "value": 21.3, "unit": "pg"}, {"measurement": "MCHC", "setting": "6 h", "value": 31.8, "unit": "%"}, {"measurement": "MCV", "setting": "6 h", "value": 67.1, "unit": "fL"}, {"measurement": "Mono", "setting": "6 h", "value": 2.6, "unit": "%"}, {"measurement": "Neu", "setting": "6 h", "value": 20.2, "unit": "%"}, {"measurement": "PT", "setting": "6 h", "value": 15.2, "unit": "s"}, {"measurement": "Plat", "setting": "6 h", "value": 114.7, "unit": "x10_4/uL"}, {"measurement": "RBC", "setting": "6 h", "value": 601.2, "unit": "x10_4/ul"}, {"measurement": "Ret", "setting": "6 h", "value": 9.2, "unit": "%"}, {"measurement": "WBC", "setting": "6 h", "value": 77.4, "unit": "x10_2/uL"}, {"measurement": "KIDNEY_L", "setting": "6 h", "value": 0.9, "unit": "g"}, {"measurement": "KIDNEY_R", "setting": "6 h", "value": 0.9, "unit": "g"}, {"measurement": "KIDNEY_TOTAL", "setting": "6 h", "value": 1.7, "unit": "g"}, {"measurement": "LIVER", "setting": "6 h", "value": 8.1, "unit": "g"}, {"measurement": "A/G", "setting": "6 h", "value": 0.9}, {"measurement": "ALP", "setting": "6 h", "value": 1554.6, "unit": "IU/L"}, {"measurement": "ALT", "setting": "6 h", "value": 46.8, "unit": "IU/L"}, {"measurement": "AST", "setting": "6 h", "value": 83.2, "unit": "IU/L"}, {"measurement": "BUN", "setting": "6 h", "value": 9, "unit": "mg/dL"}, {"measurement": "CRE", "setting": "6 h", "value": 0.2, "unit": "mg/dL"}, {"measurement": "Ca", "setting": "6 h", "value": 10.9, "unit": "mg/dL"}, {"measurement": "Cl", "setting": "6 h", "value": 106.2, "unit": "meq/L"}, {"measurement": "DBIL", "setting": "6 h", "value": 0.006, "unit": "mg/dL"}, {"measurement": "GLC", "setting": "6 h", "value": 175.2, "unit": "mg/dL"}, {"measurement": "IP", "setting": "6 h", "value": 10.1, "unit": "mg/dL"}, {"measurement": "K", "setting": "6 h", "value": 4.3, "unit": "meq/L"}, {"measurement": "LDH", "setting": "6 h", "value": 80.2, "unit": "IU/L"}, {"measurement": "Na", "setting": "6 h", "value": 142.8, "unit": "meq/L"}, {"measurement": "PL", "setting": "6 h", "value": 139.4, "unit": "mg/dL"}, {"measurement": "RALB", "setting": "6 h", "value": 2.5, "unit": "g/dL"}, {"measurement": "TBIL", "setting": "6 h", "value": 0.062, "unit": "mg/dL"}, {"measurement": "TC", "setting": "6 h", "value": 78.8, "unit": "mg/dL"}, {"measurement": "TG", "setting": "6 h", "value": 32.4, "unit": "mg/dL"}, {"measurement": "TP", "setting": "6 h", "value": 5.3, "unit": "g/dL"}, {"measurement": "gamma-GTP", "setting": "6 h", "value": 0.8, "unit": "IU/L"}]}
